What was measured:
[1] = system: beta amyloid production; assay: Repressor Release Assay (RRA); format: cell-based; conditions: for fold induction at 10 µg/mL / APPI Fold Increase / APPI % of Example #98: Conc 10 μg/ml; for APPI % of Example #98: relative to Example 98
Method in brief: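 Read-out is luciferase luminescence (RLU) after 36-48 h duplicate compound exposure of transfected CHO-K1 cells. These cells carry transiently introduced APP-lacI and pRSVO-luc DNA. Diluent control was 25 mM Hepes/1% DMSO; toxicity recorded as binary score (1 non-toxic, 0 toxic).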

[2] = system: CHO-K1 cells; assay: Toxicity in RRA (loss of luciferase signal); conditions: toxicity = loss of signal (<0.75 fold increase)
Description: The beta amyloid inhibitory activity of the compounds of the present invention was determined using the Repressor Release Assay (RRA).
“Fold Increase” refers to the amount of luciferase activity (measured in relative light units) over diluent control. “SEM” refers to the standard error of the mean for fold increase.

[3] = luciferase activity over diluent control, read-out: APPI Fold Increase
[4] = luciferase activity over diluent control

Molecule	fold induction at 10 µg/mL [1, 3]	(%)APPI Toxicity ([2]; Conc 10 μg/ml)	APPI Fold Increase [1, 4]	APPI % of Example #98 [1]	fold induction at 3 µg/mL ([1]; Conc 3 μg/ml, luciferase activity over diluent control, read-out: APPI Fold Increase)	(%)APPI Toxicity ([2]; Conc 3 μg/ml)
CCCCCCC(O)(CCCCCC)[C@@H](NS(=O)(=O)c1cccc(Cl)c1)[C@@H](C)CC [Example 249, 3-chloro-N-{(1S)-2-hexyl-2-hydroxy-1-[(1S)-1-methylpropyl]octyl}benzenesulfonamide]	1.9	1 (1=non-toxic)				
CCCCCC(O)(CCCCC)[C@@H](NS(=O)(=O)c1cccc(Cl)c1)[C@@H](C)CC [Example 250, 3-chloro-N-{(1S)-2-hydroxy-1-[(1S)-1-methylpropyl]-2-pentylheptyl}benzenesulfonamide]	2.4	1 (1=non-toxic)				
CCCCC(O)(CCCC)[C@@H](NS(=O)(=O)c1cccc(Cl)c1)[C@@H](C)CC [Example 251, N-{(1S)-2-butyl-2-hydroxy-1-[(1S)-1-methylpropyl]hexyl}-3-chlorobenzenesulfonamide]	3.4	1 (1=non-toxic)				
CC[C@H](C)[C@H](NS(=O)(=O)c1cccc(Cl)c1)C(O)(CC(C)C)CC(C)C [Example 252, 3-chloro-N-{(1S)-2-hydroxy-2-isobutyl-4-methyl-1-[(1S)-1-methylpropyl]pentyl}benzenesulfonamide]	1.8	1 (1=non-toxic)				
CC[C@H](C)[C@H](NS(=O)(=O)c1cccc(Cl)c1)C(O)(c1ccccc1)c1ccccc1 [Example 253, 3-chloro-N-{(1S,2S)-1-[hydroxy(diphenyl)methyl]-2-methylbutyl}benzenesulfonamide]	1.61	1 (1=non-toxic)				
C=CCC(O)(CC=C)[C@@H](NS(=O)(=O)c1cccc(Cl)c1)[C@@H](C)CC [Example 254, N-{(1S)-2-allyl-2-hydroxy-1-[(1S)-1-methylpropyl]-4-pentenyl}-3-chloro benzenesulfonamide]		1 (1=non-toxic)	1.93 fold	71.92%		
CC[C@H](C)[C@H](NS(=O)(=O)c1cccc(Cl)c1)C(O)(CC)CC [Example 255, 3-chloro-N-{(1S)-2-ethyl-2-hydroxy-1-[(1S)-1-methylpropyl]butyl}benzenesulfonamide]	2.03	1 (1=non-toxic)				
CC[C@H](C)[C@H](NS(=O)(=O)c1cccc(Cl)c1)C(O)(c1ccc(Cl)cc1)c1ccc(Cl)cc1 [Example 256, N-{(1S,2S)-1-[bis(4-chlorophenyl)(hydroxy)methyl]-2-methylbutyl}-3-chloro benzenesulfonamide]		1 (1=non-toxic)	1.5 fold	55.91%		
CC[C@H](C)[C@H](NS(=O)(=O)c1cccc(Cl)c1)C(O)(c1ccc(OC)cc1)c1ccc(OC)cc1 [Example 258, 3-chloro-N-((1S,2S)-1-{hydroxy [bis(4-methoxyphenyl)]methyl}-2-methylbutyl)benzenesulfonamide]	1.72	1 (1=non-toxic)				
C=CCCC(O)(CCC=C)[C@@H](NS(=O)(=O)c1cccc(Cl)c1)[C@@H](C)CC [Example 260, N-{(1S)-2-(3-butenyl)-2-hydroxy-1-[(1S)-1-methylpropyl]-5-hexenyl}-3-chlorobenzenesulfonamide]	6.23	1 (1=non-toxic)			1.5	1 (1=non-toxic)
CCCCCCC(O)(CCCCCC)[C@@H](NS(=O)(=O)c1ccccc1F)[C@@H](C)CC [Example 261, 2-fluoro-N-{(1S)-2-hexyl-2-hydroxy-1-[(18)-1-methylpropyl]octyl}benzenesulfonamide]		1 (1=non-toxic)	3.5 fold	104.4%		
CCCCCC(O)(CCCCC)[C@@H](NS(=O)(=O)c1ccccc1F)[C@@H](C)CC [Example 262, 2-fluoro-N-{(1S)-2-hydroxy-1-[(1S)-1-methylpropyl]-2-pentylheptyl}benzenesulfonamide]	2.2	1 (1=non-toxic)				
CC[C@H](C)[C@H](NS(=O)(=O)c1ccccc1F)C(O)(c1ccccc1)c1ccccc1 [Example 263, 2-fluoro-N-{(1S,2 S)-1-[hydroxy (diphenyl)methyl]-2-methylbutyl}benzenesulfonamide]	1.57	1 (1=non-toxic)				
C=CCC(O)(CC=C)[C@@H](NS(=O)(=O)c1ccccc1F)[C@@H](C)CC [Example 264, N-{(1S)-2-allyl-2-hydroxy-1-[(1S)-1-methylpropyl]-4-pentenyl}-2-fluorobenzenesulfonamide]	2	1 (1=non-toxic)				
CC[C@H](C)[C@H](NS(=O)(=O)c1ccccc1F)C(O)(CC)CC [Example 265, N-{(1S)-2-ethyl-2-hydroxy-1-[(1S)-1-methylpropyl]butyl}-2-fluorobenzenesulfonamide]	1.78	1 (1=non-toxic)				
CC[C@H](C)[C@H](NS(=O)(=O)c1ccccc1F)C(O)(c1ccc(F)cc1)c1ccc(F)cc1 [Example 266, N-{(1S,2S)-1-[bis(4-fluorophenyl)(hydroxy)methyl]-2-methylbutyl}-2-fluorobenzenesulfonamide]	1.57	1 (1=non-toxic)				
CC[C@H](C)[C@H](NS(=O)(=O)c1ccccc1F)C(O)(c1ccc(Cl)cc1)c1ccc(Cl)cc1 [Example 267, N-{(1S,2S)-1-[bis(4-chlorophenyl)(hydroxy)methyl]-2-methylbutyl}-2-fluoro benzenesulfonamide]		1 (1=non-toxic)	1.59 fold	58.97%		
C=C(C)C(O)(C(=C)C)[C@@H](NS(=O)(=O)c1ccccc1F)[C@@H](C)CC [Example 268, 2-fluoro-N-{(1S)-2-hydroxy-2-isopropenyl-3-methyl-1-[(1S)-1-methylpropyl]-3-butenyl}benzenesulfonamide]	1.75	1 (1=non-toxic)				
CC[C@H](C)[C@H](NS(=O)(=O)c1ccccc1F)C(O)(c1ccc(OC)cc1)c1ccc(OC)cc1 [Example 269, 2-fluoro-N-((1S,2S)-1-{hydroxy[bis(4-methoxyphenyl)]methyl}-2-methylbutyl)benzenesulfonamide]	1.58	1 (1=non-toxic)				
C/C=C(\C)C(O)(/C(C)=C/C)[C@@H](NS(=O)(=O)c1ccccc1F)[C@@H](C)CC (stereo partly drawn) [Example 270, 2-fluoro-N-{(1S,3E)-2-hydroxy-3-methyl-2-[(1E)-1-methyl-1-propenyl]-1-[(1S)-1-methylpropyl]-3-pentenyl}benzenesulfonamide]	1.86	1 (1=non-toxic)				
C=CCCC(O)(CCC=C)[C@@H](NS(=O)(=O)c1ccccc1F)[C@@H](C)CC [Example 271, N-{(1S)-2-(3-butenyl)-2-hydroxy-1-[(1S)-1-methylpropyl]-5-hexenyl}-2-fluorobenzenesulfonamide]	1.82	1 (1=non-toxic)				
N-{(1S)-2-allyl-2-hydroxy 1-[(1S)-1-methylpropyl]-4-pentenyl}-4-bromo benzenesulfonamide [Example 216]		1 (1=non-toxic)	1.58 fold	72.76%		
